Earlier results in PubChem BioAssay AID493017 (Abbott Labs, 1994).

Target: Platelet-derived growth factor receptor alpha (Homo sapiens) (UniProt P16234)
Experiment: PubChem AID 493017
Settings: WOMBAT literature affinities, multiple human targets; PDGFR; gene PDGFRA; NCBI gene 5156

Sequence of Platelet-derived growth factor receptor alpha (Homo sapiens) (P16234 whole entry, looked up): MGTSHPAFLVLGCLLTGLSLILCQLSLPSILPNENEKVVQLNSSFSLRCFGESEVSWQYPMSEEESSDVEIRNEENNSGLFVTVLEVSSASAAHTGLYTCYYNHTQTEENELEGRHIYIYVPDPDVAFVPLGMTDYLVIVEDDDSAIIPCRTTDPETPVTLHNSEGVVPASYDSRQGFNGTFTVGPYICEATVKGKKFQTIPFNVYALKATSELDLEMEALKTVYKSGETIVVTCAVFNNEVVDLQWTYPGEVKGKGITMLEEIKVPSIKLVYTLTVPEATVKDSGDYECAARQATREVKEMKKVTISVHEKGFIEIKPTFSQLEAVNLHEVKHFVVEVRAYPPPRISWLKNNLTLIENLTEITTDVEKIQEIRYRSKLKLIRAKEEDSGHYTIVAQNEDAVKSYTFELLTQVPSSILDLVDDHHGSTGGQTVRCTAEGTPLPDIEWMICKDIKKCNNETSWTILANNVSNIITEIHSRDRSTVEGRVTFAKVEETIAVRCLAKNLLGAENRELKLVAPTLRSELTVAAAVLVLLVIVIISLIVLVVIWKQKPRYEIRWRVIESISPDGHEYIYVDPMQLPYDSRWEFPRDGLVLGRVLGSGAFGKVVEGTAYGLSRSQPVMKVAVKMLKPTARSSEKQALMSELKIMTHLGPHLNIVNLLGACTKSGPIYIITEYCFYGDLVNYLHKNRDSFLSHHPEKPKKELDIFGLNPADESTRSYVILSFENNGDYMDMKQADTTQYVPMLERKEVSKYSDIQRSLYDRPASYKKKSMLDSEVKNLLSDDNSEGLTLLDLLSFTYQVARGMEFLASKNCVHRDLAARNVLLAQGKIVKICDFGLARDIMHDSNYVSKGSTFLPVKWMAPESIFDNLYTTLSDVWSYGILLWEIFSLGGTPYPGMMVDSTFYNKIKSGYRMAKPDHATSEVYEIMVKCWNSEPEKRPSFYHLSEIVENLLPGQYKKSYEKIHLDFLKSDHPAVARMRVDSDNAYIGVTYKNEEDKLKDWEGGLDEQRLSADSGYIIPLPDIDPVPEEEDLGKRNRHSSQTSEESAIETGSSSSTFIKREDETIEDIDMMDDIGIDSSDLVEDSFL

| SMILES | IC50 |
| --- | --- |
| COc1cc2cc(C#CC3CCCCC3)cnc2cc1OC | 548 nM |
| COc1cc2cc(CCC3CCCCC3)cnc2cc1OC | 387 nM |
| COc1cc2cc(C3=CCCC3)cnc2cc1OC | 28.3 nM |
| COc1cc2cc(-c3ccc(Cl)c(Cl)c3)cnc2cc1OC | 2650 nM |
| Oc1cc2cc(-c3cccnc3)cnc2cc1O | 7750 nM |
| c1ccc2ncc(-c3c[nH]c4ccccc34)cc2c1 | 4000 nM |
| COc1cc2cc(C3CCCC3)cnc2cc1OC | 224 nM |
| COc1ccc(-c2cnc3cc(OC)c(OC)cc3c2)cc1C | 200 nM |
| Fc1cc2cc(-c3ccsc3)cnc2cc1F | 2830 nM |
| COc1cc2cccnc2cc1OC | 24500 nM |

The remaining lines, values ahead:

| IC50 | SMILES |
| --- | --- |
| 102 nM | COc1cc2cc(-c3ccccc3)cnc2cc1OC |
| 245 nM | COc1cc2cc(-c3c[nH]c4ccccc34)cnc2cc1OC |
| 21.2 nM | COc1cc2cc(-c3ccc(=O)[nH]c3)cnc2cc1OC |
| 31.6 nM | COc1cc2cc(C#Cc3ccccc3)cnc2cc1OC |
| 24.5 nM | COc1cc2cc(-c3ccc(O)cc3)cnc2cc1OC |
| 158 nM | COc1ccc(-c2cnc3cc(OC)c(OC)cc3c2)s1 |
| 3.87 nM | COc1ccc(-c2cnc3cc(OC)c(OC)cc3c2)cc1 |
| 1870 nM | COc1cc2cc(-c3ccc(C(=O)O)cc3)cnc2cc1OC |
| 400 nM | COc1ccc(CCc2cnc3cc(OC)c(OC)cc3c2)cc1 |
| 54.8 nM | COc1ccc(C=Cc2cnc3cc(OC)c(OC)cc3c2)cc1 |
| 52.9 nM | COc1cc2cc(OCc3ccccc3)cnc2cc1OC |
| 40 nM | COc1cc2cc(NCc3ccccc3)cnc2cc1OC |
| 1410 nM | COc1cccc(-c2cnc3cc(OC)c(OC)cc3c2)c1 |
